# From BindingDB's records for doi:10.3109/14756366.2012.740477 (Solapur University, 2013)
# Biological target: Urease (Canavalia ensiformis, UniProt P07374)
# Test: Urease Inhibition Assay
# Conditions: pH 6.8; 30 °C
# Method: Mixture of 25 μL of urease enzyme (Jack bean) solution containing 1 unit of enzyme (1 unit = 0.02 mg of enzyme) was dissolved in phosphate buffer of pH 6.8, 55 μL of buffer containing 100 mM urea, and 5 μL of test compounds (0.5 mM concentration) was incubated at 30°C for 15 min in 96-well plates. Urease activity was determined by measuring ammonia production using the iodophenol method38. Briefly, 45 μL each of phenol reagent and 70 μL of alkali reagent were added to each well. The increase in absorbance at 630 nm was measured after 50 min, using a microplate reader (Molecular Device, CA, USA). All reactions were performed in triplicate in a final volume of 200 μL. The results (change in absorbance per min) were processed using Soft-Max Pro software (Molecular Device, CA, USA).
# Sequence of Urease (P07374 whole entry): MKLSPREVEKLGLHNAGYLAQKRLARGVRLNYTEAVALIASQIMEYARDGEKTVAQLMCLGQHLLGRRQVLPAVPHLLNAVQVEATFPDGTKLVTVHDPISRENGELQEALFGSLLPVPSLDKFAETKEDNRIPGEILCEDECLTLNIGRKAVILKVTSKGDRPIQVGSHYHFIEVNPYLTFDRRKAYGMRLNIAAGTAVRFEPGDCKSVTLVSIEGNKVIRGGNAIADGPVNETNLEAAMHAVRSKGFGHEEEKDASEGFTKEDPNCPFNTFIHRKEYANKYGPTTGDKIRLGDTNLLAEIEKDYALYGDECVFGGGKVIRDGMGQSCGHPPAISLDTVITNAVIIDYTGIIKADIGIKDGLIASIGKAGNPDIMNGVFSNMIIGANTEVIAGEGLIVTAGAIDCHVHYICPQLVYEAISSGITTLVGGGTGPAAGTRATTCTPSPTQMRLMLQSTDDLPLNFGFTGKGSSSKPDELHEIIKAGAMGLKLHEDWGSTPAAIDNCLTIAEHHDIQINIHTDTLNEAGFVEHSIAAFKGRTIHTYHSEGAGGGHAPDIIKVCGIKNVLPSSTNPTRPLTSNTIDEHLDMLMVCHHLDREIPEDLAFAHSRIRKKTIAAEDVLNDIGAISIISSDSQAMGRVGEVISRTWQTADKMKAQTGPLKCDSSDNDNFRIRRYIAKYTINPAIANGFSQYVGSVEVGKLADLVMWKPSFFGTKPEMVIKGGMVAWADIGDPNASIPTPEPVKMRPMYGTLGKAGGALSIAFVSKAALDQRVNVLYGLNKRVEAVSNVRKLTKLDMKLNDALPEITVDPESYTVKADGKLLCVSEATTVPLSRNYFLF
row,Structure (SMILES),IC50
1,"Cn1c2ccccc2c2cc(-c3cc(-c4ccc(Cl)cc4Cl)nc(N)n3)ccc21 [4-(2,4-Dichlorophenyl)-6-(9-methyl-9H-carbazol-3-yl)-pyrimidin-2-amine (5i)]",19.4 µM
2,"Cn1c2ccccc2c2cc(-c3cc(-c4ccc(F)cc4F)nc(N)n3)ccc21 [4-(2,4-Difluorophenyl)-6-(9-methyl-9H-carbazol-3-yl)-pyrimidin-2-amine (5f)]",40.2 µM
3,Cn1c2ccccc2c2cc(-c3cc(-c4ccccn4)nc(N)n3)ccc21 [4-(9-Methyl-9H-carbazol-3-yl)-6-(pyridin-2-yl)-pyrimidin-2-amine (5o)],> 100 µM
4,Cn1c2ccccc2c2cc(-c3cc(-c4ccc([N+](=O)[O-])cc4)nc(N)n3)ccc21 [4-(9-Methyl-9H-carbazol-3-yl)-6-(4-nitrophenyl)-pyrimidin-2-amine (5m)],87.2 µM
5,COc1ccc(-c2cc(-c3ccc4c(c3)c3ccccc3n4C)nc(N)n2)cc1 [4-(4-Methoxyphenyl)-6-(9-methyl-9H-carbazol-3-yl)-pyrimidin-2-amine (5b)],95.4 µM
6,"COc1cc(OC)c(-c2cc(-c3ccc4c(c3)c3ccccc3n4C)nc(N)n2)c(OC)c1 [4-(9-Methyl-9H-carbazol-3-yl)-6-(2,4,6-trimethoxyphenyl)-pyrimidin-2-amine (5d)]",73.7 µM
7,Cn1c2ccccc2c2cc(-c3cc(-c4ccc(Br)cc4)nc(N)n3)ccc21 [4-(4-Bromophenyl)-6-(9-methyl-9H-carbazol-3-yl)-pyrimidin-2-amine (5l)],95.1 µM
8,"COc1ccc(-c2cc(-c3ccc4c(c3)c3ccccc3n4C)nc(N)n2)cc1OC [4-(3,4-Dimethoxyphenyl)-6-(9-methyl-9H-carbazol-3-yl)-pyrimidin-2-amine (5c)]",30.7 µM
9,Cn1c2ccccc2c2cc(-c3cc(-c4ccc(F)cc4)nc(N)n3)ccc21 [4-(4-Fluorophenyl)-6-(9-methyl-9H-carbazol-3-yl)-pyrimidin-2-amine (5e)],> 100 µM
10,"Cn1c2ccccc2c2cc(-c3cc(-c4cc(Cl)ccc4Cl)nc(N)n3)ccc21 [4-(2,5-Dichlorophenyl)-6-(9-methyl-9H-carbazol-3-yl)-pyrimidin-2-amine (5k)]",28.1 µM
11,"Cn1c2ccccc2c2cc(-c3cc(-c4ccc(F)c(F)c4)nc(N)n3)ccc21 [4-(3,4-Difluorophenyl)-6-(9-methyl-9H-carbazol-3-yl)-pyrimidin-2-amine (5g)]",45.2 µM
12,Cn1c2ccccc2c2cc(-c3cc(-c4cccc(N)c4)nc(N)n3)ccc21 [4-(3-Aminophenyl)-6-(9-methyl-9H-carbazol-3-yl)-pyrimidin-2-amine (5p)],83.7 µM
13,Cn1c2ccccc2c2cc(-c3cc(-c4cccs4)nc(N)n3)ccc21 [4-(9-Methyl-9H-carbazol-3-yl)-6-(thiophen-2-yl)-pyrimidin-2-amine (5n)],> 100 µM
14,Cn1c2ccccc2c2cc(-c3cc(-c4ccccc4)nc(N)n3)ccc21 [4-(9-Methyl-9H-carbazol-3-yl)-6-phenylpyrimidin-2-amine (5a)],> 100 µM
15,Cn1c2ccccc2c2cc(-c3cc(-c4ccc(Cl)cc4)nc(N)n3)ccc21 [4-(4-Chlorophenyl)-6-(9-methyl-9H-carbazol-3-yl)-pyrimidin-2-amine (5h)],> 100 µM
16,"Cn1c2ccccc2c2cc(-c3cc(-c4ccc(Cl)c(Cl)c4)nc(N)n3)ccc21 [4-(3,4-Dichlorophenyl)-6-(9-methyl-9H-carbazol-3-yl)-pyrimidin-2-amine (5j)]",23.2 µM
